Source: patent publication US6787552B2, “PPAR delta activators” (Nippon Chemiphar Co., Ltd., priority 2000, dated 2004)

Assays:
PPARγ = target: T1, PPARγ (Homo sapiens, UniProt P37231); experiment: PPARγ transactivation activity (GAL4-hPPARγ LBD / UASx4-TK-LUC reporter in CV-1 cells); format: cell-based; settings: CV-1; in the manner as described in Example 9; Table 26; read-out: PPARγ (PPAR activating power)
T1 construct: Receptor expression plasmid (GAL4-hPPARα, LBD GAL4-hPPARγ LBD, GAL4-hPPARδ LBD); expressed in transfected cells; host or cells: CV-1 cells
T1 sequence (P37231 238-503 limits assumed): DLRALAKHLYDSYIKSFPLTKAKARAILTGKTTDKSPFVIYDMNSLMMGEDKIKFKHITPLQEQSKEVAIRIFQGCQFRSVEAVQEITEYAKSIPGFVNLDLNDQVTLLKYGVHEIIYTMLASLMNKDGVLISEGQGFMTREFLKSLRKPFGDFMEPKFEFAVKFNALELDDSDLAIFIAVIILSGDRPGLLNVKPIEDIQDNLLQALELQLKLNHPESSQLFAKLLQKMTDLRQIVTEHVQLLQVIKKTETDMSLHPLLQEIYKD
Procedure: In the same manner, relative ligand activities to PPARδ and γ transactivation activitis are calculated (see the below-mentioned Example 9).
(§1) (1) Measurement of PPARα,γ,δ Transactivation Activity
(§2) PPARα,γ,δ transactivation activity of each compound [Examples 1-6 and known PPARδ agonist (L-16504: Berger, J., et al. (1999), J. Biol. Chem., 274:6718-6725)] was measured in the manner described below.
(§3) CV-1 was obtained from Tohoku University Aging Medical Laboratory, Medical Cell Collection Center. All test compounds were dissolved in dimethylsulfoxide (DMSO) to give a test sample of 0.1% concentration.
(§4) Receptor expression plasmid (GAL4-hPPARα, LBD GAL4-hPPARγ LBD, GAL4-hPPARδ LBD), Reporter plasmid (UASx4-TK-LUC), and β-galactosidase expression plasmid (βGAL) similar to Kliewer, S. A., et al., ((1992) Nature, 358:771-774) were employed.
(§5) CV-1 cells were seeded in 24 well culture plates at 2×10^5 cells per well, and cultured for 24 hours using 4%-fetal bovine serum(FBS)-added OPTI-MEM I Reduced Serum Medium (Life Technologies, 500 μL/well). Subsequently, the cells were washed with non serum-added OPTI-MEM. To the washed cells were added DNA-containing solution [the following components were contained in the one well solution (250 μl): 0.03 μg of GAL4-hPPARδ LBD, 0.25 μg of UASx4-TK-LUC, 0.35 μg of βGAL, and 2 μL of lipofection reagent, DMRIE-C (Life Technologies). These components were dissolved in OPTI-MEM and allowed to stand for 30 minutes at room temperature]. The cells were incubated for 5 hours at 37° C.
(§6) The cells were then incubated for 40 hours in 500 μL of fresh OPTI-MEM containing 4% FBS and the test compound (dissolved in 100% DMSO to reach a final concentration: 10^−4M or 10^−5M).
(§7) The culture medium was removed and the cells were washed with PBS twice. Cell lysates were produced using a solubilizing buffer (25 mM Tris-PO4 (pH 7.8), 15%v/v glycerol, 2% CHAPS, 1% Lecithin, 1% BSA, 4 mM EGTA (pH 8.0), 8 mM MgCl2, 1 mM DTT). A portion (20 μL) of the solution was transferred onto a 96-well plate. Subsequently, 100 μL of luciferase substrate solution (Piccagene: available from Nippon Gene Co., Ltd.) was added, and a luminous intensity per one sec. (luciferase activity) was measured by means of MLR-100 type Microluminoreader (available from Corona Electrics Co., Ltd.). Further, the activity caused by […] incorporation which was incorporated into the cells simultaneously with the incorporation of the luciferase gene was measured, for correcting variation of luciferase activity by the addition of the compound, utilizing the transfection efficiency of the incorporated gene. β-Galactosidase activity was measured by the following method: 50 μL of the solubilized sample was placed on another 96-well plate; 10 μL of ONPG (2-nitrophenyl-β-galactopyranoside) solution was added; incubation was carried out for 5 minutes at room temperature; 50 μL of a reaction stopping solution (1M sodium carbonate solution) was added; and the absorbance at 414 nm was measured.

PPARα = target: T2, PPARα (Homo sapiens, UniProt Q07869); experiment: PPARα transactivation activity (GAL4-hPPARα LBD / UASx4-TK-LUC reporter in CV-1 cells); format: cell-based; settings: CV-1; in the manner as described in Example 9; Table 26; read-out: PPARα (PPAR activating power)
T2 construct: Receptor expression plasmid (GAL4-hPPARα, LBD GAL4-hPPARγ LBD, GAL4-hPPARδ LBD); expressed in transfected cells; host or cells: CV-1 cells
T2 sequence (Q07869 239-466 limits assumed): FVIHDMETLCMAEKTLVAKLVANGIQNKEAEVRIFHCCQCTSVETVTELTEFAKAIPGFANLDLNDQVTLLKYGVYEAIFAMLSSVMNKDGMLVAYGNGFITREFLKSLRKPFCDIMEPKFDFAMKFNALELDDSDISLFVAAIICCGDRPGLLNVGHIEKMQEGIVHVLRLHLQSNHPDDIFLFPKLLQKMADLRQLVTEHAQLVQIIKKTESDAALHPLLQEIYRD
Procedure: as §1, §2, §3, §4, §5, §6, §7

PPARδ = target: T3, PPARδ (Homo sapiens, UniProt Q03181); experiment: PPARδ transactivation activity (GAL4-hPPARδ LBD / UASx4-TK-LUC reporter in CV-1 cells); format: cell-based; settings: for Emax: CV-1, 40 h, in the manner as described in Example 9, Table 26, read-out: PPARδ (PPAR activating power)
T3 construct: A chimeric receptor expression plasmid (GAL4-hPPARδ LBD); expressed in transfected cells; host or cells: CV-1 cells
T3 sequence (Q03181 211-439 limits assumed): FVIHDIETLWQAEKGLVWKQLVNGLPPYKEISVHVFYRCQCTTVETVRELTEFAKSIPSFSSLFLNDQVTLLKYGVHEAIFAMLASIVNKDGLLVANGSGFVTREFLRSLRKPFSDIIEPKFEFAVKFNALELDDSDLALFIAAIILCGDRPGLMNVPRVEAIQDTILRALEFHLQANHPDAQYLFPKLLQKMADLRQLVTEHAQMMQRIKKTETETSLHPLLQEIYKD
Procedure: A chimeric receptor expression plasmid (GAL4-hPPARδ LBD), a reporter plasmid (UASx4-TK-LUC) and β-galactosidase (β-GAL) are transfected into CV-1 cells by utilizing a lipofection reagent DMRIE-C (Life Technologies).
as §1
CV-1 was obtained from Tohoku University Aging Medical Laboratory, Medical Cell Collection Center.
as §5, §6, §7

Emax (PPARγ) [%] | Emax (PPARα) [%] | Emax (PPARδ) [%] | melting point [°C] | PPARδ activating effect (transactivation activity) as compared with L-165041 (PPARδ; CV-1 cells, GAL4-hPPARδ LBD, 40 hours incubation, luciferase activity with 10^-4 M L-165041 set to 100%) | activity to PPARδ relative to activity to PPARα and γ (selectivity) (PPARδ; CV-1 cells, GAL4-hPPAR LBD reporter, relative activities vs control reagents) | SMILES
9 | 1 | 65 ± 2 | 135 to 139 | – | – | CC(C)c1oc(-c2cc3ccccc3o2)nc1CCC(=O)c1ccc(OC(C)(C)C(=O)O)cc1 [Example 7-7, 2-[4-[3-[2-(2-Benzofuranyl)-5-isopropyl-4-oxazolyl]propionyl]phenyloxy]-2-methylpropionic acid]
– | – | – | 115 to 120 | – | – | CC(C)c1oc(-c2ccc(Cl)cc2Cl)nc1CCC(=O)c1cccc(OC(C)(C)C(=O)O)c1 [Example 8-2, 2-[3-[3-[2-(2,4-Dichlorophenyl)-5-isopropyl-4-oxazolyl]propionyl]phenyloxy)-2-methylpropionic acid]
19 | 8 | 96 ± 13 | – | same or higher | – | CC(C)c1oc(-c2cccc(Cl)c2Cl)nc1CCC(=O)c1ccc(OC(C)(C)C(=O)O)cc1 [Example 7-6, 2-[4-[3-[2-(2,3-Dichlorophenyl)-5-isopropyl-4-oxazolyl]propionyl]phenyloxy]-2-methylpropionic acid]
2 | 1 | 86 ± 10 | 100 to 105 | – | higher | CC(C)c1oc(-c2ccc(Cl)cc2Cl)nc1CCC(=O)c1ccc(OC(C)(C)C(=O)O)cc1 [Example 7-4, 2-[4-[3-[2-(2,4-Dichlorophenyl)-5-isopropyl-4-oxazolyl]propionyl]phenyloxy]-2-methylpropionic acid]
